{"source": "patent US6602519B1", "about": "“Oxidized thymosin β4” (The University Court of the University of Glasgow, priority 1998, dated 2003)", "key": {"G-actin": {"test_system": "G-actin", "conditions": "high salt conditions; cited from earlier work"}, "[1]": {"test_system": "Human umbilical vein endothelial cells (HUVEC)", "assay": "Scratch wound assay (endothelial sheet wound closure)", "type": "cell-based", "protocol": "Scratch wound assay: Human umbilical vein endothelial cells (HUVEC) were grown to confluency in multiwell dishes (Corning) and a scratch made across the diameter of each well with a sterile pipette tip. The resulting wound (approx. 1 mm) was then measured before the addition of Tβ4 or Tβ4so and at 45 min intervals."}, "human neutrophils": {"test_system": "human neutrophils", "assay": "Cell tracking assay (neutrophil locomotion)", "type": "cell-based", "conditions": "uniform concentration", "protocol": "Neutrophils were obtained as described by Chettibi et al. [1993]. Briefly, whole blood was mixed with 1:10 v/v of 5% dextran and allowed to sediment at 37° C. for 1 hour. The leucocyte rich plasma was layered over Nycoprep 1.077 and centrifuged at 750 g for 15 minutes. Erythrocytes in the resulting pellet were removed by hypotonic lysis and neutrophils were washed twice with balanced salt solution (BSS). The cells were checked for viability by trypan blue exclusion (generally greater than 96% viable).\nAutomated cell-tracking migration chambers were made as previously described [Chettibi et al., 1993] and placed on the stage of an inverted phase-contrast microscope within a temperature controlled (37° C.) transparent box and locomotion observed by means of a video camera connected to a monochrome monitor and also to an Acorn A5000 computer with a Watford video digitiser programmed to capture and analyze one frame every 5 seconds. Data was obtained from a maximum of 80 selected cells and used to calculate instantaneous speed, the 2-dimensional diffusion coefficient and the locomotion persistence time, using the described procedure to eliminate the contribution of systematic drift [Chettibi et al., 1994]."}, "[2]": {"test_system": "fMLP-induced chemotaxis of human neutrophils", "assay": "Chemotaxis assay (modified Boyden chamber)", "type": "cell-based", "conditions": "for chemotactic activity of the substance itself: Boyden chamber; for inhibition of chemotaxis to fMLP: substance in upper chamber, fMLP in lower chamber", "protocol": "Filters (Sartorius membrane filter 3 μm pore) were cut and glued to a modified iml syringe barrel. 300 μl of 2×10^6/ml neutrophils were added to 300 μl antagonist and 200 μl of the suspension was added to the upper chamber (syringe barrel). The lower chamber (a 5 ml beaker), contained 3.6 ml of agonist. After 45 minutes, the cells were fixed in 70% ethanol for 5 minutes. This procedure also removes the filter from the syringe barrel by dissolving the glue. The filters were placed in a multi-well dish and treated as follows: distilled water for 2 minutes, Harris haematoxylin 1 minute, distilled water 1 min, Scotts Tap water (1:1 0.7% sodium bicarbonate:4% Magnesium sulphate (v/v) for 5 minutes, 70% ethanol 3 mins, 95% ethanol 3 minutes and 80%:20% ethanol:butanol (v/v) 5 minutes. The filters were cleared in xylene for 5 minutes, mounted in DEPEX and examined under bright field illumination with a 40× objective. Five randomly selected fields were counted for each filter."}, "[3]": {"test_system": "carrageenan-induced footpad swelling", "assay": "Carrageenan induced oedema test", "type": "in vivo, BALB/c mice", "conditions": "for reduction of carrageenan-induced oedema: 800 ng doses", "protocol": "Induction of Inflammatory Response to Carrageenin: Groups of mice were injected subcutaneously in one hind paw with 300 μg carrageenin mixed the thymosin β4, native or sulphoxide in a final volume of 50 μl. Control animals were injected with the same volume of saline. Footpad swelling was measured using a spring-dial calliper, and expressed as the difference in swelling between the carrageenin-injected paw and the uninjected, contralateral paw. The animals were injected intraperitoneally (i.p.) With the same dose of thymosin β4, native or sulphoxide and footpad measurements made at 6, 24, 48 and 72 hours."}}, "note": "“Also recorded” adds a separate entry of the source."}
{"substance": "oxidised thymosin β4 [Tβ4so]", "values": [{"measurement": "concentration needed to inhibit actin polymerisation relative to thymosin β4", "setting": "G-actin", "value": 20, "unit": "fold"}, {"measurement": "wound healing (closure rate of scratch on endothelial monolayer)", "setting": "[1]", "value": "promotes would healing"}, {"measurement": "potency in wound closure relative to native peptide", "setting": "[1]; oxidised versus native peptide", "value": "at least an order of magnitude higher potency"}, {"measurement": "dispersive locomotion of neutrophils", "setting": "human neutrophils", "value": "dispersive at low concentrations"}, {"measurement": "chemotactic activity of the substance itself", "setting": "[2]", "value": "neither was chemotactic"}, {"measurement": "potency of inhibition of chemotaxis relative to native Tβ4", "setting": "[2]; oxidised versus native peptide", "value": "an order of magnitude more potent; also recorded: tenfold more inhibitory"}, {"measurement": "inhibition of chemotaxis to fMLP", "setting": "[2]", "value": "both inhibited"}, {"measurement": "suppression of footpad swelling", "setting": "[3]; 10 ng dose", "value": "ineffective"}, {"measurement": "suppression of footpad swelling", "setting": "[3]; 100 ng dose", "value": "ineffective"}, {"measurement": "reduction of carrageenan-induced oedema", "setting": "[3]", "value": "significantly reduced"}, {"measurement": "suppression of footpad swelling", "setting": "[3]; administration 30 minutes prior to, during and 6 hours after carrageenan, evident after 6 h, sustained up to 24 hours", "value": "significant suppression of swelling"}]}
{"substance": "thymosin β4 (SDKPDMAEIEKFDKSKLKKTETQEKNPLPSKETIEQEKQAGES; UniProt P62328 2-44, looked up) [Tβ4, native, non-oxidised thymosin β4 prepared from human neutrophils by HPLC, reference compound]", "values": [{"measurement": "wound healing (closure rate of scratch on endothelial monolayer)", "setting": "[1]", "value": "promotes would healing"}, {"measurement": "dispersive locomotion of neutrophils", "setting": "human neutrophils", "value": "did not give significant dispersive locomotion"}, {"measurement": "chemotactic activity of the substance itself", "setting": "[2]", "value": "neither was chemotactic"}, {"measurement": "inhibition of chemotaxis to fMLP", "setting": "[2]", "value": "both inhibited"}, {"measurement": "reduction of carrageenan-induced oedema", "setting": "[3]", "value": "only the oxidised peptide significantly reduced"}, {"measurement": "suppression of footpad swelling", "setting": "[3]; 1000 ng dose", "value": "ineffective"}]}
